The values below are quoted from earlier work in patent US7368249B2, “Methods and compositions for evaluation and modulation of fertility” (The Curators of the University of Missouri, priority 2003, dated 2008).

In this data set the test system is maturing reticulocytes. The note with it: presence vs absence of ETYA.

Turning to `CCCCCC#CCC#CCC#CCC#CCCCC(=O)O` [ETYA, 5,8,11,14-eicosatetraynoic acid], the “mitochondrial degradation in maturing reticulocytes” value is “delayed”.
